Experimental data: publication PMC10313808, “Lipoxygenase inhibitory synthetic derivatives of methyl gallate regulate gene expressions of COX-2 and cytokines to reduce animal model arthritis” (Scientific Reports, 2023)
Values belong to the compound of their own block, whether it stands above or below them.

How the values were obtained:
FCA-induced arthritis [1] = conditions: FCA rats, serum, 10 mg.kg^−1 oral
Protocol: (§1) Chronic inflammation induced by Freund's Complete Adjuvant contains a suspension of heat-killed Mycobacterium tuberculosis in the vehicle (Chondrex, Labex Corporation). 100 μL of FCA (10 mg/mL) was injected intradermally to the left-hand paw of SD rats[42]. […] Induction of inflammation became chronic by 9–12 days and then rats were divided into 7 groups having 6 rats in each group. Everything possible was done to minimize the suffering of experimental animals. Minimum number of rats only were drafted to generate reliable data. 42 rats were randomly allocated into seven groups (6 × 7).
(§2) Group I (n = 6) served as normal rats that received an equal volume of vehicle control. Group II (n = 6) was arthritic model control treated with vehicle only. Group III (n = 6) was arthritic control which received the diclofenac (10 mg.kg^–1). Groups IV (n = 6), V (n = 6), VI (n = 6) and VII (n = 6) were treated with a low and high dose of methyl gallate (20 mg.kg^–1, 40 mg.kg^–1) and MGSD 1 (1 mg.kg^–1, 10 mg.kg^–1). The drugs were orally administered through oral gavage daily in PBS vehicle for 28 days.
(§3) Blood was drawn from jugular vein[43] and collected in heparinized tubes and used for further analysis. By using Horiba 5-part hematology analyzer the blood parameters like RBC, WBC, neutrophil and hemoglobin were analyzed. Serum parameters were analyzed using Stat Fax autoanalyzer. Serum glutamic pyruvic transaminase (SGPT), serum glutamic oxaloacetic transaminase (SGOT) and alkaline phosphatase (ALP) were determined using standard diagnostic kits (Proton, Accurex).

[2] = system: ankle joints, liver, spleen, and thymus; experiment: FCA-induced arthritis: histological analysis; format: in vivo, Sprague–Dawley (SD) rats; conditions: FCA rats
Protocol: The animals used for the FCA induced arthritis were euthanized at the end of the experiment and the ankle joints were separated from the hind paw and fixed in 10% buffered formalin. Similarly, liver, spleen, and thymus were also dissected carefully and immersed in fixative, and after 24 h each specimen were decalcified in 5% nitric acid, followed by embedding in paraffin wax and 4 µm thickness sections were prepared. These prepared sections were then mounted and stained with hematoxylin and[…] under brightfield compound binocular research microscope at 100X and 400X magnification and inflammation was graded.

[3] = FCA-induced arthritis: body weight measurement; format: in vivo, Sprague–Dawley (SD) rats; conditions: FCA rats, 10 mg.kg^−1 oral
Protocol: as §1, §2
The bodyweight of the animals was measured every day after the commencement of the experiment till the end (28th day). The weight change was calculated using the formula: Weightchange%=Wt-Wo/[…], where Wt is the weight of the animal at time t
Wo is the weight of the animal on the initial day.

FCA-induced arthritis [4] = experiment: FCA-induced arthritis: hind paw volume; format: in vivo, Sprague–Dawley (SD) rats; conditions: FCA rats, 10 mg.kg^−1 oral
Protocol: as §1, §2
By a plethysmometer the rat hind paw volume was measured from the initial day to final day (28th day) with successive intervals of 9 days, before and after FCA injection. The inhibition was calculated by the formula given below. Percentageinhibition=1-Meanchangesinpawvolumeoftreatedrat/Meanchangesinpawvolumeofuntreatedrat×100.

FCA-induced arthritis [5] = experiment: FCA-induced arthritis: haematological parameters; format: in vivo, Sprague–Dawley (SD) rats; conditions: FCA rats, 10 mg.kg^−1 oral
Protocol: as §1, §2, §3

FCA-induced arthritis [6] = experiment: FCA-induced arthritis: organ index (liver, spleen); format: in vivo, Sprague–Dawley (SD) rats; conditions: FCA rats, 10 mg.kg^−1 oral, end of experiment
Protocol: as §1, §2
At the end of the experiments, animals were euthanized using ketamine injection. The liver and spleen were removed at the end of the experiment and weighed. The index of the organs was expressed as the percentage (%) wet weight of organ versus body weight. The organ indexes were calculated by using the following formula Organindex=Weightoforgang/Bodyweightg×100.

LOX = target: T1, LOX (Glycine max, UniProt P08170); experiment: Fluorescence quenching studies; format: binding; conditions: 296 K, pH 9; for Kd: read-out: Binding constant (K) (converted); for Quenching constant (Ksv): Stern–Volmer
T1 construct: purchased Sigma (Sigma-Aldrich, UK)
T1 sequence (P08170 1-839): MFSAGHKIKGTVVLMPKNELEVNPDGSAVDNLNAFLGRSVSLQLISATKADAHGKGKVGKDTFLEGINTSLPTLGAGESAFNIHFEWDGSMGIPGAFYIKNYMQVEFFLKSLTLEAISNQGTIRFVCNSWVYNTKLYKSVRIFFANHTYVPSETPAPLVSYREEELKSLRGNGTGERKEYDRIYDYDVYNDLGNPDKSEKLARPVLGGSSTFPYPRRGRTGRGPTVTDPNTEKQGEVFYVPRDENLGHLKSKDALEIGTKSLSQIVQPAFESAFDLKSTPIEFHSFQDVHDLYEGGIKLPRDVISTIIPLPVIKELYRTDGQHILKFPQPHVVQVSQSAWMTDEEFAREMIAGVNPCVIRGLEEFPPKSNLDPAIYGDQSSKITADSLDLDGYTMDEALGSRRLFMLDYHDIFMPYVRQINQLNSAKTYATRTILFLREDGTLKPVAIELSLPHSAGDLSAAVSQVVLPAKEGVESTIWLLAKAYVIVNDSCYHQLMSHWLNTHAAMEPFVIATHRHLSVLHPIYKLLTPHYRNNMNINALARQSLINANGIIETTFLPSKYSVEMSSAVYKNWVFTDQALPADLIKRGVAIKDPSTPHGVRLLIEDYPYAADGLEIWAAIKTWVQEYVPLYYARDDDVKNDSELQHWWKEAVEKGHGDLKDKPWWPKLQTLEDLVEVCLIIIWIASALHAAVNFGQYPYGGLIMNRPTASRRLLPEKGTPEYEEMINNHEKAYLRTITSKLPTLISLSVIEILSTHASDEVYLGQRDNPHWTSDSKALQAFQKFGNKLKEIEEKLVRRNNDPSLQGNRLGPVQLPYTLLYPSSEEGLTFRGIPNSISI
Description: To analyze the type of mechanism, the data of fluorescence of LOX was plotted, as relative fluorescence intensity (F0/F), against MGSDs. Here F and F0 are the fluorescence intensity in the presence and absence of MGSDs respectively. The Stern–Volmer constants were obtained from the plot by linear regression using the expression: F0/F=1+KsvQ.
Ksv is the Stern–Volmer constant and [Q] is the respective concentration of derivatives. Ksv which depicts the binding affinity between the fluorophore (protein) and quencher (ligand), were obtained from the slopes of the plot (Supplementary Fig. 15). […] The Fluorescence quenching data provided information about the binding constant (K), the number of binding sites (n), and the values could be arrived by applying the equation. Log F0-F/F=log K+nlogQ.
The Fluoromax-4 spectrophotometer (Spectra-NanoLED source 278) was used for studying fluorescence quenching of the compound. Bandwidth set at 5 nm for both excitation and emission spectra. The wavelength was set for excitation at 280 nm and the emission was recorded at 290–450 nm using 1.0 cm cell at 296 K temperature. The LOX with a concentration of 7 μM, dissolved in borate buffer at pH 9 and ligands at the concentrations of 35, 70, 105, 140, 175, 210, 245 and 280 μM were used for the experiment.

[7] = target: T2, Lipoxidase from Glycine max (15- LOX) (Glycine max, UniProt P08170); experiment: In-vitro LOX enzyme inhibition assay (spectrophotometric, 234 nm); format: biochemical; conditions: 20 μM compound
T2 construct: purchased Sigma (Sigma-Aldrich, UK)
T2 sequence (P08170 1-839): T1 sequence (P08170 1-839)
Protocol: The LOX inhibition assays were performed with MGSDs. The inhibitory activity was measured by a modified spectrophotometric method[16],[39]. The plant LOX pathway is in many respects equivalent to the ‘arachidonic acid cascades’ in animals. For this reason, the in vitro inhibition of LOX constitutes a good model for the screening of compounds with anti-inflammatory potential[40],[41]. LOX (Lipoxidase from Glycine max (15- LOX); EC 1.13.11.12) type I-B (Soybean), and linoleic acid were purchased from Sigma (Sigma-Aldrich, UK) and used without further purification. Enzyme solution of 1.03 µM was prepared in 0.2 mM borate buffer, pH 8.5. The substrate, linoleic acid solution of 0.3 mM was also prepared in the borate buffer at the same pH. […] The final concentration of MGSDs used for the analysis was 20 µM. The assay mixture was made of 50 µL of LOX, 50 µL of the test solution and 360 µL of the substrate. The final volume was made up to 2 mL with corresponding borate buffer quantity. The activity of LOX was measured on the formation of […], which was monitored at 234 nm on spectrophotometer, (HITACHI U 2900, Japan). The same procedure was repeated with triplicate for the confirmation of LOX inhibitory activity[16],[39].

[8] = target: T2, Lipoxidase from Glycine max (15- LOX); experiment: Michaelis–Menten enzyme kinetics (Lineweaver-Burk); format: biochemical; conditions: for IC50: Cheng–Prusoff from Ki; for Ki: linoleic acid substrate, competitive
Protocol: To identify the mode of inhibition, enzyme kinetics assay was performed with MGSDs. For the kinetic analysis different substrate concentrations of 18, 27, 36, 45, 54, 63 µM were prepared in 0.2 mM borate buffer (H 9)[16]. The assay mixture was made of 50 µL of LOX, 50 µL of the test solution and different concentrations of the substrate. The final volume was made upto 2 mL with corresponding borate buffer quantity. The activity of LOX was measured by the formation of […], which was monitored at 234 nm on spectrophotometer, (HITACHI U 2900, Japan). The reaction was measured at a time span of 300 s. The same experiment was repeated in the presence of 0.1, 0.08 and 0.06 μM concentration of MGSDs. The Line Weaver-Burk plot was constructed and Michaelis–Menten constant (Km) and Maximal Velocity (Vmax) were determined from the plot. From the Km and Vmax obtained, the inhibitor constant, Ki was calculated using the following equation derived from the Michaelis–Menten Equation: Km′=Km1+I0/Ki. The IC50was calculated using the Cheng–Prusoff equation, Ki=IC50/1+S/Km.

Structure (SMILES): O=C(O)Cc1ccccc1Nc1c(Cl)cccc1Cl [Diclofenac]
SGOT (FCA-induced arthritis [1]): 210 ± 1.73 IU/L | SGPT (FCA-induced arthritis [1]): 91 ± 1.20 IU/L | Histology of ankle joints ([2]; 10 mg.kg^-1): synovial joint was seen free of infiltration and oedema | Histology of liver ([2]; dose not stated): hepatocyte arrays and central sinusoid area were seen to regain normalcy and a few necrotic cells were still visible | Histology of spleen ([2]; dose not stated): periarteriolar lymphoid sheath regained normalcy | Histology of thymus ([2]; methyl gallate high dose): reduction in the number of neutrophils | Percentage of body weight (Mean ± SEM) 9th day ([3]; 9th day): 9.9 ± 0.07% | Percentage of body weight (Mean ± SEM) 18th day ([3]; 18th day): 36.55 ± 1.10% | Percentage of body weight (Mean ± SEM) 28th day ([3]; 28th day): 41.52 ± 1.36% | Percentage of inhibition (paw oedema) (FCA-induced arthritis [4]): 59% | Paw volume (mL) (mean ± SEM) 9th day (FCA-induced arthritis [4]; 9th day): 1.44 ± 0.16 mL | Paw volume (mL) (mean ± SEM) 18th day (FCA-induced arthritis [4]; 18th day): 0.8 ± 0.22 mL | Paw volume (mL) (mean ± SEM) 28th day (FCA-induced arthritis [4]; 28th day): 0.73 ± 0.08 mL | Paw volume (mL) (mean ± SEM) Initial day (FCA-induced arthritis [4]; initial day): 0.56 ± 0.05 mL | Percentage of inhibition (paw oedema) (FCA-induced arthritis [4]; listed as diclofenac): 59% | Hb (FCA-induced arthritis [5]): 14.3 ± 0.4 g/dL | Lymphocyte (FCA-induced arthritis [5]): 73.2 ± 1.64% | Neutro phil (FCA-induced arthritis [5]): 11.5 ± 0.15% | RBC (FCA-induced arthritis [5]): 7.92 ± 0.18^# 10^6/mm^3 | WBC (FCA-induced arthritis [5]): 9.25 ± 0.10^# 10^3/mm^3 | Organ index (%) Liver (FCA-induced arthritis [6]): 3.18 ± 0.11% | Organ index (%) Spleen (FCA-induced arthritis [6]): 0.21 ± 0.01%

Kd (LOX): 439 µM | Quenching constant (Ksv) (LOX): 6300 M⁻¹ | inhibition at 20 µM [7]: 68 ± 4.32% | IC50 [8]: 0.34 µM | Ki [8]: 0.1 µM
Structure (SMILES): O=C(O)COc1cc(C(=O)O)cc(O)c1OCC(=O)O [MGSD 2, 2,2′-((5-carboxy-3-hydroxy-1,2-phenylene)bis (oxy))diacetic acid]

Kd (LOX): 485 µM | Quenching constant (Ksv) (LOX): 7800 M⁻¹ | inhibition at 20 µM [7]: 65 ± 2.65% | IC50 ([8]; abstract): 0.226 µM | Ki [8]: 0.06 µM
Structure (SMILES): O=C(O)COc1cc(C(=O)O)cc(O)c1O [MGSD 3, (3-(carboxymethoxy)-4,5-dihydroxybenzoic acid]
